{"source": "patent US20240247024A1", "about": "“INHIBITORS OF NICOTINAMIDE N-METHYL TRANSFERASE (NNMT)” (UNIVERSITEIT LEIDEN, priority 2021, published 2024)", "biological_target": "T1, NNMT (Homo sapiens, UniProt P40261)", "T1 sequence (P40261 1-264)": "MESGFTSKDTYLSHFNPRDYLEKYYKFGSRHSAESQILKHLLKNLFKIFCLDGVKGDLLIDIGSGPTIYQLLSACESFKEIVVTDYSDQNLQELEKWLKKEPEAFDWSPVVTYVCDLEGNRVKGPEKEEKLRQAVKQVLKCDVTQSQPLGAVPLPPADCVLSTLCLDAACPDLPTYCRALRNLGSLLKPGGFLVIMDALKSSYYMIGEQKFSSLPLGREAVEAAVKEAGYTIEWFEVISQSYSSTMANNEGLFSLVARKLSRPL", "assay": "NNMT assay (HILIC-MS/MS, formation of MNA)", "settings": "NA 200 μM, SAM 8.5 μM", "key": {"[1]": {"settings": "read-out: IC50 values, Table 1, alkene linked aromatics, maximum concentration tested 25 μM"}, "[2]": {"settings": "IC50 values (nM), Table 3, 1-carbon alkyl linkers, maximum concentration tested 25 μM"}, "[3]": {"settings": "IC50 values (μM), Table 3, 1-carbon alkyl linkers, maximum concentration tested 25 μM"}, "[4]": {"settings": "IC50 values (nM), Table 6, amino acid replacement, maximum concentration tested 25 μM"}, "[5]": {"settings": "IC50 values (μM), Table 6, amino acid replacement, maximum concentration tested 25 μM"}}, "note": "Several values for one entry are separate records, joined by “and”; a condition that tells them apart may be missing. Equal values may be shown once. Read-outs that look alike come from different tables or passages of the source.", "data": [{"smiles": "NC(=O)c1cc(/C=C/CN(CC[C@H](N)C(=O)O)C[C@H]2O[C@@H](n3cnc4c(N)ncnc43)[C@H](O)[C@@H]2O)ccc1Br", "note": "[GYZ-739]", "values": [{"measurement": "IC50", "setting": "[1]", "value": "7 nM and 6.8 nM"}]}, {"smiles": "Nc1ncnc2c1ncn2[C@@H]1O[C@H](CN(CC[C@H](N)C(=O)O)Cc2ccc(F)c([N+](=O)[O-])c2)[C@@H](O)[C@H]1O", "note": "[GYZ-417]", "values": [{"measurement": "IC50", "setting": "read-out: IC50 values, Table 3, 1-carbon alkyl linkers, maximum concentration tested 25 μM", "value": "410 nM and 407 nM"}]}, {"smiles": "Nc1ncnc2c1ncn2[C@@H]1O[C@H](CN(C/C=C/c2ccc(C(=O)O)cc2)CC[C@H](N)C(=O)O)[C@@H](O)[C@H]1O", "note": "[GYZ-564]", "values": [{"measurement": "IC50", "setting": "[1]", "value": "> 25000", "unit": "nM"}]}, {"smiles": "Nc1ncnc2c1ncn2[C@@H]1O[C@H](CN(CC[C@H](N)C(=O)O)Cc2ccccc2[N+](=O)[O-])[C@@H](O)[C@H]1O", "note": "[GYZ-425]", "values": [{"measurement": "IC50", "setting": "[2]", "value": "> 25000", "unit": "nM"}, {"measurement": "IC50", "setting": "[3]", "value": "> 25000", "unit": "nM"}]}, {"smiles": "Nc1ncnc2c1ncn2[C@@H]1O[C@H](CN(CC[C@H](N)C(=O)O)Cc2ccc(C(F)(F)F)cc2)[C@@H](O)[C@H]1O", "note": "[GYZ-414]", "values": [{"measurement": "IC50", "setting": "[2]", "value": 6790, "unit": "nM"}, {"measurement": "IC50", "setting": "[3]", "value": 6790, "unit": "nM"}]}, {"smiles": "CCNCCN(C/C=C/c1ccc(C#N)cc1)C[C@H]1O[C@@H](n2cnc3c(N)ncnc32)[C@H](O)[C@@H]1O", "note": "[GYZ-761]", "values": [{"measurement": "IC50", "setting": "[4]", "value": "> 25000", "unit": "nM"}, {"measurement": "IC50", "setting": "[5]", "value": "> 25000", "unit": "nM"}]}, {"smiles": "Nc1ncnc2c1ncn2[C@@H]1O[C@H](CN(CC[C@H](N)C(=O)O)Cc2ccccc2F)[C@@H](O)[C@H]1O", "note": "[GYZ-421]", "values": [{"measurement": "IC50", "setting": "[2]", "value": "> 25000", "unit": "nM"}, {"measurement": "IC50", "setting": "[3]", "value": "> 25000", "unit": "nM"}]}, {"smiles": "Nc1ncnc2c1ncn2[C@@H]1O[C@H](CN(CCCc2ccc([N+](=O)[O-])cc2)CC[C@H](N)C(=O)O)[C@@H](O)[C@H]1O", "note": "[GYZ-447]", "values": [{"measurement": "IC50", "setting": "IC50 values (nM), Table 5, 3-carbon alkyl linkers", "value": 294, "unit": "nM"}, {"measurement": "IC50", "setting": "IC50 values (μM), Table 5, 3-carbon alkyl linkers", "value": 290, "unit": "nM"}]}, {"smiles": "C=CC(=O)N1CC(CN(C/C=C/c2ccc(C#N)cc2)C[C@H]2O[C@@H](n3cnc4c(N)ncnc43)[C@H](O)[C@@H]2O)C1", "note": "[GYZ-665]", "values": [{"measurement": "IC50", "setting": "[4]", "value": 4160, "unit": "nM"}, {"measurement": "IC50", "setting": "[5]", "value": 4160, "unit": "nM"}]}, {"smiles": "Nc1ncnc2c1ncn2[C@@H]1O[C@H](CN(C/C=C/c2c(F)c(F)c(F)c(F)c2F)CC[C@H](N)C(=O)O)[C@@H](O)[C@H]1O", "note": "[MH609]", "values": [{"measurement": "IC50", "setting": "IC50 values (nM), Table 1, alkene linked aromatics, maximum concentration tested 25 μM", "value": 400, "unit": "nM"}, {"measurement": "IC50", "setting": "IC50 values (μM), Table 1, alkene linked aromatics, maximum concentration tested 25 μM", "value": 400, "unit": "nM"}]}, {"smiles": "C=CC(=O)NCCN(C/C=C/c1ccc(C#N)cc1)C[C@H]1O[C@@H](n2cnc3c(N)ncnc32)[C@H](O)[C@@H]1O", "note": "[GYZ-604]", "values": [{"measurement": "IC50", "setting": "[4]", "value": 21000, "unit": "nM"}, {"measurement": "IC50", "setting": "[5]", "value": 21000, "unit": "nM"}]}, {"smiles": "Nc1ncnc2c1ncn2[C@@H]1O[C@H](CN(C/C=C/c2cccc(B(O)O)c2)CC[C@H](N)C(=O)O)[C@@H](O)[C@H]1O", "note": "[GYZ-746]", "values": [{"measurement": "IC50", "setting": "[1]", "value": 1660, "unit": "nM"}]}, {"smiles": "N#Cc1ccc(/C=C/CN(CCNC(=O)C(F)(F)F)C[C@H]2O[C@@H](n3cnc4c(N)ncnc43)[C@H](O)[C@@H]2O)cc1", "note": "[GYZ-693]", "values": [{"measurement": "IC50", "setting": "[4]", "value": 7770, "unit": "nM"}, {"measurement": "IC50", "setting": "[5]", "value": 7770, "unit": "nM"}]}, {"smiles": "Nc1ncnc2c1ncn2[C@@H]1O[C@H](CN(CC[C@H](N)C(=O)O)Cc2cccc(C(F)(F)F)c2)[C@@H](O)[C@H]1O", "note": "[GYZ-416]", "values": [{"measurement": "IC50", "setting": "[2]", "value": 6580, "unit": "nM"}, {"measurement": "IC50", "setting": "[3]", "value": 6580, "unit": "nM"}]}, {"smiles": "Nc1ncnc2c1ncn2[C@@H]1O[C@H](CN(C/C=C/c2ccc(S(=O)(=O)F)cc2)CC[C@H](N)C(=O)O)[C@@H](O)[C@H]1O", "note": "[GYZ-736]", "values": [{"measurement": "IC50", "setting": "[1]", "value": "68 nM and 67.9 nM"}]}, {"smiles": "N#Cc1ccc(/C=C/CN(C/C=C/c2ccc(S(=O)(=O)F)cc2)C[C@H]2O[C@@H](n3cnc4c(N)ncnc43)[C@H](O)[C@@H]2O)cc1", "note": "[GYZ-743]", "values": [{"measurement": "IC50", "setting": "[4]", "value": 7780, "unit": "nM"}, {"measurement": "IC50", "setting": "[5]", "value": 7780, "unit": "nM"}]}, {"smiles": "COC(=O)/C=C/C(=O)NCCN(C/C=C/c1ccc(C#N)cc1)C[C@H]1O[C@@H](n2cnc3c(N)ncnc32)[C@H](O)[C@@H]1O", "note": "[GYZ-694]", "values": [{"measurement": "IC50", "setting": "[4]", "value": "> 25000", "unit": "nM"}, {"measurement": "IC50", "setting": "[5]", "value": "> 25000", "unit": "nM"}]}, {"smiles": "Nc1ncnc2c1ncn2[C@@H]1O[C@H](CN(CC[C@H](N)C(=O)O)Cc2ccc(F)cc2)[C@@H](O)[C@H]1O", "note": "[GYZ-423]", "values": [{"measurement": "IC50", "setting": "[2]", "value": "> 25000", "unit": "nM"}, {"measurement": "IC50", "setting": "[3]", "value": "> 25000", "unit": "nM"}]}, {"smiles": "N#Cc1ccc(/C=C/CN(CCC[C@H](N)C(=O)O)C[C@H]2O[C@@H](n3cnc4c(N)ncnc43)[C@H](O)[C@@H]2O)cc1", "note": "[GYZ-485]", "values": [{"measurement": "IC50", "setting": "[4]", "value": 356, "unit": "nM"}]}, {"smiles": "Nc1ncnc2c1ncn2[C@@H]1O[C@H](CN(CC[C@H](N)C(=O)O)Cc2ccc(S(=O)(=O)F)cc2)[C@@H](O)[C@H]1O", "note": "[GYZ-760]", "values": [{"measurement": "IC50", "setting": "[2]", "value": 5620, "unit": "nM"}, {"measurement": "IC50", "setting": "[3]", "value": 5620, "unit": "nM"}]}, {"smiles": "N#CCC(=O)NCCN(C/C=C/c1ccc(C#N)cc1)C[C@H]1O[C@@H](n2cnc3c(N)ncnc32)[C@H](O)[C@@H]1O", "note": "[GYZ-695]", "values": [{"measurement": "IC50", "setting": "[4]", "value": 931, "unit": "nM"}, {"measurement": "IC50", "setting": "[5]", "value": 931, "unit": "nM"}]}, {"smiles": "N#Cc1ccc(/C=C/CN(CCCNC(=O)CCl)C[C@H]2O[C@@H](n3cnc4c(N)ncnc43)[C@H](O)[C@@H]2O)cc1", "note": "[GYZ-608]", "values": [{"measurement": "IC50", "setting": "[4]", "value": 11900, "unit": "nM"}, {"measurement": "IC50", "setting": "[5]", "value": 11900, "unit": "nM"}]}]}
